# Results from patent US12606541B2, “PPARg modulators and methods of use” (Eisai R&D Management Co., Ltd., priority 2020, dated 2026).
# pIC50: −log10 of the molar value. Read-outs that look alike come from different tables or passages of the source.
# Experiments:
# [1] = target: T1, His6-TEV-PPARγ-(234-505) (Homo sapiens, UniProt P37231); test: TR-FRET Assay to Measure Co-R Peptide Recruitment to PPARγ; type: biochemical; conditions: Co-R peptide (SMRT-ID2) recruitment, top final concentration 20 μM, read-out: TR-FRET i-Ag, AC50
# T1 construct: The His6-TEV-PPARγ-(234-505) protein for assay was expressed and purified; TEV cleavage site (N); made in house
# T1 sequence (P37231 234-505): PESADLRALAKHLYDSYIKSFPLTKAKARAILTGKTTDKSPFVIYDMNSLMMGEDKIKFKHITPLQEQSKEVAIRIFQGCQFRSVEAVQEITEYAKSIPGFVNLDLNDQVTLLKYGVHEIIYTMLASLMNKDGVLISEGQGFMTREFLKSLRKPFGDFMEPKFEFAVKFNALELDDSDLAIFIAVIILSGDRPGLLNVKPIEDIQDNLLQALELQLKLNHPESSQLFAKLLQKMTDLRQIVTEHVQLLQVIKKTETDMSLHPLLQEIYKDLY
# Outline: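 Corepressor recruitment is measured by adding terbium-labeled anti-His antibody and FITC SMRT-ID2 peptide, at 5 and 200 nM final, after a 20-minute room-temperature protein–compound incubation. After one further hour, signal is converted to percent response between DMSO and 500 nM T0070907 wells.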
# [2] = tested on: UM-UC-9 engineered cells; test: Cell proliferation / short-term viability assay, CellTiter-Glo 144 h; type: cell-based, human; conditions: read-out: CTGlo 144 h UMUC9.5, G150
# Outline: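 Viability read by CellTiter-Glo 2.0 luminescence at day 7 versus DMSO-vehicle wells and a T0 plate measured on day 0. Cells: UM-UC-9 engineered assay-ready stocks, 500 cells/well in high-glucose DMEM with 10% FBS, 37° C, 5% CO2.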
Structure (SMILES),AC50 [1] [µM],"pIC50 ([2]; Homo sapiens, UM-UC-9, 144 h)",pIC50 [2],AC50 ([1]; listed as 115a) [µM],pIC50 ([2]; listed as 115a)
"COc1cc(-c2cc(C(=O)N3CC[C@H](C(=O)NCc4nnccc4C)CC34CC4)n[nH]2)c(F)cn1 [Example 386, (S)-4-(5-(5-fluoro-2-methoxypyridin-4-yl)-1H-pyrazole-3-carbonyl)-N-((4-methylpyridazin-3-yl)methyl)-4-azaspiro[2.5]octane-7-carboxamide]",0.181,6.64,,,
"COc1cc(-c2cc(C(=O)N3CC[C@H](C(=O)N[C@H]4CC[C@@](O)(C(F)(F)F)CC4)CC34CC4)n[nH]2)c(F)cn1 (single isomer, unassigned) [Example 169-B]",0.0023,8.85,,,
"COc1cc(-c2cc(C(=O)N3CC[C@@H](C(=O)NCc4ncc(Cl)cn4)CC34CC4)n[nH]2)c(F)cn1 [Example 413, (R)—N-((5-chloropyrimidin-2-yl)methyl)-4-(5-(5-fluoro-2-methoxypyridin-4-yl)-1H-pyrazole-3-carbonyl)-4-azaspiro[2.5]octane-7-carboxamide]",0.0152,7.26,,,
"O=C(NCc1ncc(F)cc1Cl)C1CCN(C(=O)c2cc(-c3cc(C4CC4)ncc3F)[nH]n2)C2(CC2)C1 (racemic) [Example 480, (S)—N-((3-chloro-5-fluoropyridin-2-yl)methyl)-4-(5-(2-cyclopropyl-5-fluoropyridin-4-yl)-1H-pyrazole-3-carbonyl)-4-azaspiro[2.5]octane-7-carboxamide and (R)—N-((3-chloro-5-fluoropyridin-2-yl)methyl)-4-(5-(2-cyclopropyl-5-fluoropyridin-4-yl)-1H-pyrazole-3-carbonyl)-4-azaspiro[2.5]octane-7-carboxamide]",0.0176,,6.43,,
"COc1cc(-c2cc(C(=O)N3CCC(C(=O)NC4CCC(C)CC4)CC3)n[nH]2)c(F)cn1 (mixture of isomers) [Example 114, 1-(5-(5-fluoro-2-methoxypyridin-4-yl)-1H-pyrazole-3-carbonyl)-N-((1s,4s)-4-methylcyclohexyl)piperidine-4-carboxamide and 1-(5-(5-fluoro-2-methoxypyridin-4-yl)-1H-pyrazole-3-carbonyl)-N-((1r,4r)-4-methylcyclohexyl)piperidine-4-carboxamide]",0.0785,,6.92,,
"COc1cc(-c2cc(C(=O)N3CCC(C(=O)NC(C)c4cccc(Cl)c4)CC3)n[nH]2)c(Cl)cn1 (single isomer, unassigned) [Example 115-A]",,,,0.717,5.88
"COc1cc(-c2cc(C(=O)N3CCC(C(=O)NCC4CCc5[nH]ncc5C4)CC34CC4)n[nH]2)c(F)cn1 (single isomer, unassigned) [Example 341-B]",0.0081,,7.91,,
"COc1cc(-c2cc(C(=O)N3CCC(C(=O)NC(C)c4ccc5[nH]nc(C)c5c4)CC3)n[nH]2)c(F)cn1 (racemic) [Example 281, 1-(5-(5-fluoro-2-methoxypyridin-4-yl)-1H-pyrazole-3-carbonyl)-N-(1-(3-methyl-1H-indazol-5-yl)ethyl)piperidine-4-carboxamide]",0.101,6.20,,,
COc1cc(-c2cc(C(=O)N3CCC(C(=O)NC4CCN(C5COC56CNC6)C4)CC34CC4)n[nH]2)c(F)cn1 (mixture of isomers) [Example 461],0.44,,< 5.00,,
"COc1cc(-c2cc(C(=O)N3CC[C@H](C(=O)Nc4cnn5cc(C(C)O)ccc45)CC34CC4)n[nH]2)c(F)cn1 (single isomer, unassigned) [Example 495-B]",0.0133,,6.84,,
"COc1cc(-c2cc(C(=O)N3CCC(C(=O)N[C@H]4CC[C@@](O)(C(F)(F)F)CC4)CC34COC4)n[nH]2)c(F)cn1 (some centres unmarked) [Example 444, 5-(5-(5-fluoro-2-methoxypyridin-4-yl)-1H-pyrazole-3-carbonyl)-N-((1r,4r)-4-hydroxy-4-(trifluoromethyl)cyclohexyl)-2-oxa-5-azaspiro[3.5]nonane-8-carboxamide]",0.113,< 5.00,,,
"COc1cc(-c2cc(C(=O)N3CC[C@H](C(=O)NCc4ncc(F)cc4C)CC34CC4)n[nH]2)c(F)cn1 [Example 361, (S)-4-(5-(5-fluoro-2-methoxypyridin-4-yl)-1H-pyrazole-3-carbonyl)-N-((5-fluoro-3-methylpyridin-2-yl)methyl)-4-azaspiro[2,5]octane-7-carboxamide]",0.0102,7.75,,,
"Cc1cc(-c2cc(C(=O)N3[C@@H]4CC[C@H]3C[C@H](C(=O)N[C@H]3CC[C@@](O)(C(F)(F)F)CC3)C4)n[nH]2)c(F)cn1 [Example 283, (1R,3R,5S)-8-[5-(5-fluoro-2-methylpyridin-4-yl)-1H-pyrazole-3-carbonyl]-N-[(1r,4r)-4-hydroxy-4-(trifluoromethyl)cyclohexyl]-8-azabicyclo[3.2.1]octane-3-carboxamide]",0.0075,7.15,,,
"COc1cc(-c2cc(C(=O)N3CC[C@H](C(=O)NC(C)c4nnc(C5CC5)o4)CC34CC4)n[nH]2)c(F)cn1 (single isomer, unassigned) [Example 395-B]",0.671,6.23,,,
"COc1cc(-c2cc(C(=O)N3CC[C@H](C(=O)Nc4cnn5c4CC(O)CC5)CC34CC4)n[nH]2)c(F)cn1 (single isomer, unassigned) [Example 514-B]",0.0596,,5.37,,

# The next lines start with results.
AC50 [1] [µM],Structure (SMILES),"pIC50 ([2]; Homo sapiens, UM-UC-9, 144 h)",pIC50 [2],AC50 ([1]; listed as 115a) [µM],pIC50 ([2]; listed as 115a)
0.344,"COc1cc(-c2cc(C(=O)N3CCC(C(=O)NCc4ccc(C(F)(F)F)nc4)CC3)n[nH]2)c(Cl)cn1 [Example 178, 1-(5-(5-chloro-2-methoxypyridin-4-yl)-1H-pyrazole-3-carbonyl)-N-((6-(trifluoro-15-methyl)pyridin-3-yl)methyl)piperidine-4-carboxamide]",5.90,,,
0.3,"COc1cc(-c2nc(C(=O)N3CCC(C(=O)NCc4cccc(Cl)c4)CC3)n[nH]2)c(F)cn1 [Example 166, N-[(3-chlorophenyl)methyl]-1-[5-(5-fluoro-2-methoxypyridin-4-yl)-1H-1,2,4-triazole-3-carbonyl]piperidine-4-carboxamide]",< 5.00,,,
0.202,"COc1cc(-c2cc(C(=O)N3CCC(C(=O)NC4CCN(C)c5ccccc54)CC3)n[nH]2)c(Cl)cn1 (racemic) [Example 186, 1-(5-(5-chloro-2-methoxypyridin-4-yl)-1H-pyrazole-3-carbonyl)-N-(1-methyl-1,2,3,4-tetrahydroquinolin-4-yl)piperidine-4-carboxamide]",6.47,,,
0.674,"COc1cc(-c2cc(C(=O)N3CCC(C(=O)NCc4cccc(Cl)c4)C(C)C3)n[nH]2)c(Cl)cn1 (mixture of isomers) [Example 173, 1-(5-(5-chloro-2-methoxypyridin-4-yl)-1H-pyrazole-3-carbonyl)-N-(3-chlorobenzyl)-3-methylpiperidine-4-carboxamide]",5.68,,,
0.88,"COc1cc(-c2cc(C(=O)N3CCC(C(=O)NCc4ncc5c(n4)CCC5)CC3)n[nH]2)c(Cl)cn1 [Example 241, 1-(5-(5-chloro-2-methoxypyridin-4-yl)-1H-pyrazole-3-carbonyl)-N-((6,7-dihydro-5H-cyclopenta[d]pyrimidin-2-yl)methyl)piperidine-4-carboxamide]",5.46,,,
0.0061,"Cc1cc(-c2cc(C(=O)N3CCC(C(=O)NCc4ccc5[nH]ccc5c4)CC3)n[nH]2)c(F)cn1 [Example 271, 1-[5-(5-fluoro-2-methylpyridin-4-yl)-1H-pyrazole-3-carbonyl]-N-(1H-indol-5-ylmethyl)piperidine-4-carboxamide]",7.52,,,
0.212,"COc1cc(-c2cc(C(=O)N3CCC(C(=O)NC4CCOc5ccc(F)cc54)CC3)n[nH]2)c(Cl)cn1 (racemic) [Example 195, 1-(5-(5-chloro-2-methoxypyridin-4-yl)-1H-pyrazole-3-carbonyl)-N-(6-fluorochroman-4-yl)piperidine-4-carboxamide]",6.46,,,
0.628,"COc1cc(-c2cc(C(=O)N3CCC(C(=O)NCc4ccc5c(c4)ncn5C)CC3)n[nH]2)c(Cl)cn1 [Example 223, 1-(5-(5-chloro-2-methoxypyridin-4-yl)-1H-pyrazole-3-carbonyl)-N-((1-methyl-1H-benzo[d]imidazol-5-yl)methyl)piperidine-4-carboxamide]",< 5.00,,,
0.0347,"COc1cc(-c2cc(C(=O)N3CCC(C(=O)NC4COc5ccc(Cl)cc54)CC3)n[nH]2)c(Cl)cn1 (centres unmarked) [Example 208, N-(5-chloro-2,3-dihydrobenzofuran-3-yl)-1-(5-(5-chloro-2-methoxypyridin-4-yl)-1H-pyrazole-3-carbonyl)piperidine-4-carboxamide]",6.54,,,
0.319,"COc1cc(-c2cc(C(=O)N3CCC(C(=O)NCc4nccc(C(F)(F)F)n4)CC3)n[nH]2)c(Cl)cn1 [Example 209, 1-(5-(5-chloro-2-methoxypyridin-4-yl)-1H-pyrazole-3-carbonyl)-N-((4-(trifluoromethyl)pyrimidin-2-yl)methyl)piperidine-4-carboxamide]",5.63,,,
